These results are taken from patent US11535627B2, “Pyrimidine derivative compound, pharmaceutically acceptable salt thereof, preparation process thereof, and pharmaceutical composition using the same” (Spark Biopharma, Inc., priority 2016, dated 2022).

Series [1] deals with LRS-RagD interaction (Homo sapiens, UniProt Q9P2J5). Put plainly: ELISA of LRS-RagD interaction. The series is classed as binding. As for the experimental part:
His-tagged human LRS proteins were diluted in carbonate buffer (100 mM, pH 9.6) to the concentration of 0.5 ng μl^−1. […] Protein from each well was removed and washed three times with PBS mixed with 0.05% Tweed® 20 (PBST), subjected to blocking with PBS containing 5% bovine serum albumin (BSA) for 2 hours. Each well was washed with PBST, followed by the treatment of a compound and GST-tagged human RagD protein simultaneously for 3 hours. GST protein itself was used as a negative control. Each well was treated with GST antibody diluted in PBST and incubated at room temperature for 1 h. After washing with PBST, the HRP-conjugated anti-horse IgG secondary antibody was incubated at room temperature for 1 h. TMB was added to each well for colorimetric development. […] To stop the chemical reaction, the treatment with 1 m H3PO4 was done. Finally, absorbance at 450 nm were measured.

The target in series [2] is T1, Human LRS proteins (Homo sapiens, UniProt Q9P2J5).
T1 construct: His
Put plainly: Surface plasmon resonance (SPR) binding to LRS. The following applies: purified LRS. How it is done:
The dissociation […] constant (KD) toward His-LRS proteins was determined by using SPR instrument (Biacore T100) at the national center for inter-university research facilities (NCIRF) in Seoul National University. The carboxyl group on the surface of CMS chip was able to be replaced with protein by forming reactive succinimide ester with 1-ethyl-3-(3-dimethylaminopropyl)-carbodiimide (EDC) and N-hydroxysuccinimide (NHS). Human LRS proteins (1.5×PBS, pH 7.3) were immobilized on flow cell 2 (imed RU; 12000) by leading to amide bond formation with NHS ester. The residual NHS ester was quenched with 1 M ethanolamine-HCl (pH 8.0). Amide bond formation alone, without any protein t, was performed on flow cell 1 as a control. The immobilization process was proceeded on PBS buffer. After the immobilization of hLRS, compounds were flowed for 60 s at a flow rate of 20 μl min^−1 in various concentrations from 1 μM to […] was then flowed at the same flow rate for 200 s for dissociation of compounds. As a running buffer, 1×PBS (pH 7.3) containing 3% DMSO and 0.005% P2O was used. The experiment was performed at 25° C. Data analysis was done by using Biacore T100 Evaluation software. […] The dissociation constant (KD) was calculated by fitting to the 1:1 binding model.
(Surface plasmon resonance follows binding to a sensor surface in real time, without labels.)

Series [3] deals with mTORC1. Put plainly: Western blotting, mTORC1 signalling pathway in HEK293T cells. It counts as cell-based. Particulars: HEK293T cells. How it is done:
HEK293T cell was cultured in Dulbecco modified eagle medium (DMEM) with 10% (v/v) fetal bovine serum (FBS) and 1% (v/v) antibiotic-antimycotic solution. […] The cells were cultured in 100-mm culture dish in an incubator at 37° C., in 5% CO2.
Cells were lysed with Radio-ImmunoPrecipitation Assay (RIPA) buffer (50 mM Tris, pH 7.8, 150 mM NaCl, 0.5% deoxycholate, 1% IGEPAL CA-630, protease inhibitor cocktail, and phosphatase inhibitors). Protein was obtained by transferring supernatant after centrifugation at 15000 rpm for 20 min. Protein concentration was measured with Micro BCA™ protein assay kit. Overall protein sampling procedure was done at 4° C. Prepared protein samples were analyzed with SDS-PAGE. Protein after electrophoresis was transferred into nitrocellulose membrane. Membrane was blocked with TBST mixed with 2% BSA over at least 1 h at r.t. Primary antibodies were incubated overnight at 4° C. […] After washing with TBST, HRP-labeled anti-rabbit IgG secondary antibody was treated at room temperature for 1 h. After washing with TBST, developing by Amersham ECL prime solution was done. Chemiluminescent signal was imaged by ChemiDoc™ MP imaging system.
For orientation: Immunoblotting shows a protein as a band on a membrane.

The subject of series [4] is HeLa human cervical cancer cells. Put plainly: Western blot analysis of LC3 and p62 (autophagy) in HeLa cells. It counts as cell-based. The following applies: 6 h, 200 nM Rap, 10 nM Baf, 20 μM 21f, compared with DMSO. As for the experimental part:
HEK293T cell was cultured in Dulbecco modified eagle medium (DMEM) with 10% (v/v) fetal bovine serum (FBS) and 1% (v/v) antibiotic-antimycotic solution. HeLa, DU145, and Ca Ski cells were cultured in RPMI 1640 medium with 10% (v/v) FBS and 1% (v/v) antibiotic-antimycotic solution. The cells were cultured in 100-mm culture dish in an incubator at 37° C., in 5% CO2.
Cells were lysed with Radio-ImmunoPrecipitation Assay (RIPA) buffer (50 mM Tris, pH 7.8, 150 mM NaCl, 0.5% deoxycholate, 1% IGEPAL CA-630, protease inhibitor cocktail, and phosphatase inhibitors). Protein was obtained by transferring supernatant after centrifugation at 15000 rpm for 20 min. Protein concentration was measured with Micro BCA™ protein assay kit. Overall protein sampling procedure was done at 4° C. Prepared protein samples were analyzed with SDS-PAGE. Protein after electrophoresis was transferred into nitrocellulose membrane. Membrane was blocked with TBST mixed with 2% BSA over at least 1 h at r.t. Primary antibodies were incubated overnight at 4° C. The treatment concentration was as follows: Anti-LC3B (ab51520); 1:1000, anti-S6K1 (ab32359); 1:1000, anti-phospho-T389 S6K1 (ab2571); 1:800, anti-p62 (CST 5114); 1:1000, anti-glyceraldehyde-3-phosphate dehydrogenase (GAPDH) (CST 2118); 1:1000, anti-phospho-S65 4E-BP1 (CST 9451); 1:1000, anti-phospho-S757 ULK1 (CST 6888); 1:800, anti-phospho-S473 Akt (CST 4058); 1:1000, anti-phospho-T172 AMPKα (CST 2531). After washing with TBST, HRP-labeled anti-rabbit IgG secondary antibody was treated at room temperature for 1 h. After washing with TBST, developing by Amersham ECL prime solution was done. Chemiluminescent signal was imaged by ChemiDoc™ MP imaging system.

The test system of series [5] is HeLa cells. Put plainly: mCherry-GFP-LC3 puncta imaging. The series is classed as cell-based, human. The following applies: 6 h, 200 nM Rap, 10 nM Baf, 20 μM 21f. How it is done:
HeLa cells were seeded in chambered coverglass from Nunc and incubated for 24 h. mCherry-GFP-LC3 plasmid was transfected to the cells using Lipofectamine™ 2000 solution. Transfection was proceeded according to manufacturer's protocol.
DeltaVision Elite imaging system was used for the imaging of mCherry-GFP-LC3 transfected HeLa cell. For live-cell imaging, chamber was maintained at 37° C. and in 5% CO2. […] The wavelength range of the used filters is as follows: mCherry (Excitation: 575/25 nm, Emission: 625/45 nm); GFP (Excitation: 475/28 nm, Emission: 525/48 nm). Images were processed and analyzed with SoftWorks deconvolution software.

Each structure is given as a SMILES string.

A word on the melting point: it is the temperature, or range, at which the solid turns liquid.

LRS-RagD interaction, sequence (Q9P2J5 whole entry): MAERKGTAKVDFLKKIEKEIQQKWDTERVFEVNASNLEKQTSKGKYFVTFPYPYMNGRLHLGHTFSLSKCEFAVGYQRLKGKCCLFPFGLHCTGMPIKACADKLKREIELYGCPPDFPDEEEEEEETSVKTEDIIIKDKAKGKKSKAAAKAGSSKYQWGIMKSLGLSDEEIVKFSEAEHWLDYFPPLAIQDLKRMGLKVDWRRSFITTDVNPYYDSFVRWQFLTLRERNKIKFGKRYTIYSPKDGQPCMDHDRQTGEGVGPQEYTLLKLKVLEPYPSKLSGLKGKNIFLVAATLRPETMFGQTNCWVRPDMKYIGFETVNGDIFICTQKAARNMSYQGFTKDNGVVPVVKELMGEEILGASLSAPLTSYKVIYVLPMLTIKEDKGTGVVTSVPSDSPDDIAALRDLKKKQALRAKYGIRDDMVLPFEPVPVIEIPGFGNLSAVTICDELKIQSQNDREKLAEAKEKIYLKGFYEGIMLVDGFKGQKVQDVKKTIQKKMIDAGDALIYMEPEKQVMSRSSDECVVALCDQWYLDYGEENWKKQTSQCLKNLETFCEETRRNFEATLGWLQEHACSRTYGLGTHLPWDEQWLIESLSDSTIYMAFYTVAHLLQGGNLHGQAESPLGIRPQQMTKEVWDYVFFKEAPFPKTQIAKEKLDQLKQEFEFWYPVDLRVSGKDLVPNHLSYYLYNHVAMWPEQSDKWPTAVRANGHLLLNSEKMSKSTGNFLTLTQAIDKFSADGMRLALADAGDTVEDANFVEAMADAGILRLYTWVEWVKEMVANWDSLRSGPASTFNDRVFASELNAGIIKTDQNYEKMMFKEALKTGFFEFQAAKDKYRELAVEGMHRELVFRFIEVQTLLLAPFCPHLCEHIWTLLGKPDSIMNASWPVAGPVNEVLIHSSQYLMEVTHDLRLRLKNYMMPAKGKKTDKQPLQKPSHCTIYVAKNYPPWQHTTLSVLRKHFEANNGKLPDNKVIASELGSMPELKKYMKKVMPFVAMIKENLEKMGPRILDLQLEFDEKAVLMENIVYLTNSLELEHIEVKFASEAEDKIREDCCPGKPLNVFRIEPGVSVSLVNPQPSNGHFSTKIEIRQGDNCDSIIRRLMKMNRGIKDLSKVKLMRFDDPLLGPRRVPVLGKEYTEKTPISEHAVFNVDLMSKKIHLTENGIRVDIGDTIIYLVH
T1 sequence (Q9P2J5 whole entry): as above

For the molecule `CN(Cc1ccccc1)c1ncnc2c1[C@@H]1OC[C@H](CN2)N1S(=O)(=O)c1cccc([N+](=O)[O-])c1`, the melting point is 101 to 103 °C.
Take `CN(Cc1ccccc1)c1ncnc2c1C1OC[C@@H](CN2)N1C(=O)OC(C)(C)C` [Compound 14f]: the “dose-dependent inhibition of the LRS-RagD interaction (dose-response curves in ELISA)” value (“dose-dependent inhibition” for short) in series [1] is given as “did not inhibit the LRS-RagD interaction in a dose-dependent manner”. The “concentration-dependent binding to LRS (SPR)” value in series [2] is listed as “did not bind to LRS in a concentration-dependent manner”.
In turn, `CN(Cc1ccccc1)c1ncnc2c1[C@@H]1OC[C@H](CN2)N1C(=O)NCc1ccccc1` [Compound 15f] returned a melting point of 67 to 69 °C. Besides, the “dose-dependent inhibition” value in series [1] was “did not inhibit the LRS-RagD interaction in a dose-dependent manner”.
Taken in the same sequence, the figures for `CN(Cc1ccccc1)c1ncnc2c1CN1[C@@H](CN2)COCS1(=O)=O` [Compound 18f] were 196 to 198 °C and “did not inhibit the LRS-RagD interaction in a dose-dependent manner”.
Turning to `CN(Cc1ccccc1)c1ncnc2c1CN1C(=O)COC[C@@H]1CN2` [Compound 19f], the “dose-dependent inhibition” value in series [1] is “did not inhibit the LRS-RagD interaction in a dose-dependent manner”. Moreover, the “concentration-dependent binding to LRS (SPR)” value in series [2] is given as “did not bind to LRS in a concentration-dependent manner”.
As to `CN(Cc1ccccc1)c1ncnc2c1CN1C[C@@H]1CN2Cc1ccccc1` (some centres unmarked) [Compound 20f], in series [1], the “dose-dependent inhibition” value is given as “inhibit the LRS-RagD interaction in a dose-dependent manner” and the “reduction of LRS-RagD interaction by ELISA” value is given as 15.5%. Besides, the “amount of phospho-T389 S6K1” value in series [3] (20 μM, 3 h) is on record as “less than that of 21f”. In addition, in series [3] (20 μM, 3 h, phospho-T389 S6K1 relative to DMSO), the “phosphorylation suppression of S6K1 by western blotting” value stood at 16.4%.
`C=CCN1C[C@H]2COC(=O)N2Cc2c(N(C)Cc3ccccc3)ncnc21` [Compound 22f] showed a melting point of 89 to 91 °C. Also, the “dose-dependent inhibition” value in series [1] was “did not inhibit the LRS-RagD interaction in a dose-dependent manner”.
Turning to `CN(Cc1ccccc1)c1ncnc2c1CN(C(=O)OC(C)(C)C)[C@@H]1C=CCN2C1` [Compound 23f], in series [1], the “dose-dependent inhibition” value is on record as “did not inhibit the LRS-RagD interaction in a dose-dependent manner”.
Turning to `CO/C1=C\C(C)=C\[C@@H](C)[C@@H](O)[C@@H](C)C/C(C)=C/C=C/[C@H](OC)[C@@H]([C@@H](C)[C@@H](O)[C@H](C)[C@@]2(O)C[C@@H](O)[C@H](C)[C@@H](C(C)C)O2)OC1=O` [bafilomycin, reference compound], in series [4], the “LC3 I/LC3 II ratio” value was “increased ratio of LC3 I/LC3 II” and the p62 level result is listed as “accumulation of p62”. For the same molecule, in series [5], the “mCherry and GFP fluorescence (mCherry-GFP-LC3)” value is listed as “yellow color”.
In the case of `CO[C@H]1C[C@@H]2CC[C@@H](C)[C@@](O)(O2)C(=O)C(=O)N2CCCC[C@H]2C(=O)O[C@H]([C@H](C)C[C@@H]2CC[C@@H](O)[C@H](OC)C2)CC(=O)[C@H](C)/C=C(\C)[C@@H](O)[C@@H](OC)C(=O)[C@H](C)C[C@H](C)/C=C/C=C/C=C/1C` [rapamycin, reference compound], the “duration of the effect on mTORC1 within cells” value in series [3] (500 nM, 0 to 24 hours) is recorded as “at least 12 hours”.
